Experimental findings from patent US8785488B2 (Exelixis Patent Company LLC, priority 2009, dated 2014) are described below.

Test [1] deals with T1, h-TGR5 (Homo sapiens, UniProt Q8TDU6).
T1 construct: expressed in transfected cells
T1 sequence (Q8TDU6 1-330): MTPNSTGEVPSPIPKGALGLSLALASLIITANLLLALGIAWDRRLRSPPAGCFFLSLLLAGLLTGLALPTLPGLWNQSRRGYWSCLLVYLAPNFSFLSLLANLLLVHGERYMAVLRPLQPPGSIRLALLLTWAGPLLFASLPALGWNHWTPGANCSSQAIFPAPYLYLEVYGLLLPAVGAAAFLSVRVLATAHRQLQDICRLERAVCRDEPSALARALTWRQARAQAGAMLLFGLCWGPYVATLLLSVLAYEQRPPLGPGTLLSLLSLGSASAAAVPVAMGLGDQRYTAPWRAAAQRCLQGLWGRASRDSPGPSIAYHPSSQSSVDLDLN
Kind of test: TGR5 cAMP Assay using Cisbio cAMP Dynamic2 htrf kit (hTGR5CRE-luc HEK 293 cells). To be noted: h-TGR5 cAMP EC50, Table 1; read-out: cAMP (EC50). Type of test: cell-based. An outline of the steps: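 […], 4000 hTGR5CRE-luc HEK 293 cells per well, with 0.5 mM IBMX and d2-cAMP, were incubated 30 min at room temperature with compounds in 8-point half-log series, in quadruplicate.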

Test [2] deals with T2, human TGR5 (h-TGR5) (Homo sapiens, UniProt Q8TDU6).
T2 construct: expressed in transfected cells
T2 sequence (Q8TDU6 1-330): T1 sequence (Q8TDU6 1-330)
Description: TGR5/CRE-Luciferiase Assay (HEK 293 hTGR5/CRE-Luc cells). It is filed as cell-based. The note with it: h-TGR5 CRE-Luc EC50, Table 1; read-out: CRE-Luc (EC50). An outline of the steps:
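HEK293 cells stably carrying hTGR5 and a CRE-luciferase reporter were exposed to serially diluted compounds (diluted in DMEM with 5% DMSO) for 6 h. Cells were then lysed in luciferase buffer, luminescence was read, and EC50 values were derived from dose-response curves.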

Take `COc1cc(C(C)(C)c2cnc(SCc3ccc(S(=O)(=O)NC(=O)NC(C)C)cc3Cl)n2-c2ccc(F)cc2)ccc1Cl` [3-chloro-4-({[5-{1-[4-chloro-3-(methyloxy)phenyl]-1-methylethyl}-1-(4-fluorophenyl)-1H-imidazol-2-yl]thio}methyl)-N-{[(1-methylethyl)amino]carbonyl} benzenesulfonamide]: the figures for the 50% effective concentration (EC50) in test [1] and in test [2] were under 100 nM and 100 to 1000 nM, respectively.

For the molecule `COc1cc(C(C)(C)c2cnc(SCc3c(F)cc(C(=O)O)cc3Cl)n2-c2cccnc2)ccc1Cl` [3-chloro-4-{[(5-{1-[4-chloro-3-(methyloxy)phenyl]-1-methylethyl}-1-pyridin-3-yl-1H-imidazol-2-yl)thio]methyl}-5-fluorobenzoic acid], the EC50 in test [1] and in test [2] was 1000 to 10000 nM in each case.

As for `CC(C)(c1ccc(S(N)(=O)=O)c(Cl)c1)c1cnc(SCc2ccc(S(=O)(=O)NC(=O)NN3CCOCC3)cc2Cl)n1-c1ccc(F)c(F)c1` [4-({[5-{1-[4-(aminosulfonyl)-3-chlorophenyl]-1-methylethyl}-1-(3,4-difluorophenyl)-1H-imidazol-2-yl]thio}methyl)-3-chloro-N-[(morpholin-4-ylamino)carbonyl]benzenesulfonamide], the EC50 in test [1] and in test [2] was 100 to 1000 nM throughout.

As to `COc1cc(C(C)(C)c2cnc(SCc3c(F)cc(C(=O)O)cc3Cl)n2-c2ccc(F)cc2)ccc1Cl` [3-chloro-4-({[5-{1-[4-chloro-3-(methyloxy)phenyl]-1-methylethyl}-1-(4-fluorophenyl)-1H-imidazol-2-yl]thio}methyl)-5-fluorobenzoic acid], the EC50 in test [1] and in test [2] was under 100 nM each time.

As to `COc1cc(C(C)(C)c2cnc(SCc3ccc(S(=O)(=O)NC(=O)NN4CCCC4)cc3Cl)n2-c2ccc(F)cc2)ccc1S(N)(=O)=O` [4-({[5-{1-[4-(aminosulfonyl)-3-(methyloxy)phenyl]-1-methylethyl}-1-(4-fluorophenyl)-1H-imidazol-2-yl]thio}methyl)-3-chloro-N-[(pyrrolidine-1-ylamino)carbonyl]benzenesulfonamide], the EC50 in test [1] and in test [2] was 100 to 1000 nM in each case.

In the case of `CC(C)NC(=O)NS(=O)(=O)c1ccc(CSc2ncc(C(C)(C)c3ccc(F)c(F)c3)n2-c2ccc(F)cc2)c(Cl)c1` [3-chloro-4-[({5-[1-(3,4-difluorophenyl)-1-methylethyl]-1-(4-fluorophenyl)-1H-imidazol-2-yl}thio)methyl]-N-{[(1-methylethyl)amino]carbonyl}benzenesulfonamide], the half-maximal effective concentration (EC50) in test [1] and in test [2] was 100 to 1000 nM in each case.

In the case of `COc1cc(-n2c(C(C)(C)c3ccc(Cl)c(Cl)c3)cnc2SCc2ccc(CCCNC(=N)N)c(C(=O)O)c2)ccc1F` [2-(3-{[amino(imino)methyl]amino}propyl)-5-[({5-[1-(3,4-dichlorophenyl)-1-methylethyl]-1-[4-fluoro-3-(methyloxy)phenyl]-1H-imidazol-2-yl}thio)methyl]benzoic acid], the EC50 in test [1] and in test [2] was 100 to 1000 nM in each case.

As to `CC(C)(c1ccc(S(N)(=O)=O)c(Cl)c1)c1cnc(SCc2ccc(F)cc2Cl)n1-c1ccc(F)cc1` [2-chloro-4-{1-[2-{[(2-chloro-4-fluorophenyl)methyl]thio}-1-(4-fluorophenyl)-1H-imidazol-5-yl]-1-methylethyl}benzenesulfonamide], the values for the EC50 in test [1] and in test [2] were 100 to 1000 nM and under 100 nM, respectively.

Consider `CC(C)(c1ccc(Cl)c(Cl)c1)c1cnc(SCc2ccc(F)c(C(=O)O)c2)n1-c1ccc(F)cc1` [5-[({5-[1-(3,4-dichlorophenyl)-1-methylethyl]-1-(4-fluorophenyl)-1H-imidazol-2-yl}thio)methyl]-2-fluorobenzoic acid], for which the EC50 in test [1] and in test [2] was 100 to 1000 nM each time.

For `Cc1cc(-n2c(C(C)(C)c3ccc(Cl)c(Cl)c3)cnc2SCc2c(F)cc(C(=O)O)cc2F)ccc1F` [4-[({5-[1-(3,4-dichlorophenyl)-1-methylethyl]-1-(4-fluoro-3-methylphenyl)-1H-imidazol-2-yl}thio)methyl]-3,5-difluorobenzoic acid], the 50% effective concentration (EC50) in test [1] and in test [2] was under 100 nM in each case.

Consider `COC(=O)c1cc(CSc2ncc(C(C)(C)c3ccc(Cl)c(Cl)c3)n2-c2ccc(F)c(OC)c2)ccc1C#CCNC(=N)N` [methyl 2-(3-{[amino(imino)methyl]amino}prop-1-yn-1-yl)-5-[({5-[1-(3,4-dichlorophenyl)-1-methylethyl]-1-[4-fluoro-3-(methyloxy)phenyl]-1H-imidazol-2-yl}thio)methyl]benzoate], for which the EC50 in test [1] and in test [2] was 100 to 1000 nM throughout.

As to `CCCNC(=O)NS(=O)(=O)c1ccc(CSc2ncc(C(C)(C)c3ccc(Cl)c(OC)c3)n2-c2ccc(F)cc2)c(Cl)c1` [3-chloro-4-({[5-{1-[4-chloro-3-(methyloxy)phenyl]-1-methylethyl}-1-(4-fluorophenyl)-1H-imidazol-2-yl]thio}methyl)-N-[(propylamino)carbonyl]benzenesulfonamide], the EC50 in test [1] and in test [2] was under 100 nM each time.

In the case of `CC(C)(O)CNC(=O)c1ccc(CSc2ncc(C(C)(C)c3ccc(Cl)c(Cl)c3)n2-c2ccc(F)cc2)c(F)c1` [4-[({5-[1-(3,4-dichlorophenyl)-1-methylethyl]-1-(4-fluorophenyl)-1H-imidazol-2-yl}thio)methyl]-3-fluoro-N-(2-hydroxy-2-methylpropyl)benzamide], the EC50 in test [1] and in test [2] was 100 to 1000 nM in each case.

`COc1cc(C(C)(C)c2cnc(SCc3c(F)cc(OCCCNC(=N)N)cc3Cl)n2-c2ccc(F)cc2)ccc1F` [1-(3-{[3-chloro-5-fluoro-4-({[5-{1-[4-fluoro-3-(methyloxy)phenyl]-1-methylethyl}-1-(4-fluorophenyl)-1H-imidazol-2-yl]thio}methyl)phenyl]oxy}propyl)guanidine]: the 50% effective concentration (EC50) in test [1] and in test [2] was under 100 nM each time.

In the case of `COc1cc(C(C)(C)c2cnc(SCc3c(F)cc(OCC/C=N/NC(=N)N)cc3Cl)n2-c2ccc(F)cc2)ccc1Cl` [(2E)-2-(3-{[3-chloro-4-({[5-{1-[4-chloro-3-(methyloxy)phenyl]-1-methylethyl}-1-(4-fluorophenyl)-1H-imidazol-2-yl]thio}methyl)-5-fluorophenyl]oxy}propylidene) hydrazinecarboximidamide], the EC50 in test [1] and in test [2] was under 100 nM each time.

On to `CC(C)(c1ccc(S(C)(=O)=O)cc1)c1cnc(SCc2c(F)cc(C(=O)O)cc2F)n1-c1ccc(F)cc1` [3,5-difluoro-4-({[1-(4-fluorophenyl)-5-{1-methyl-1-[4-(methylsulfonyl)phenyl]ethyl}-1H-imidazol-2-yl]thio}methyl)benzoic acid], for which the concentration for a half-maximal effect (EC50) in test [1] and in test [2] was under 100 nM each time.

Regarding `CC(C)(c1ccc(Cl)c(Cl)c1)c1cnc(SCc2ccc(F)c(S(C)(=O)=O)c2)n1-c1ccc(F)cc1` [5-[1-(3,4-dichlorophenyl)-1-methylethyl]-2-({[4-fluoro-3-(methylsulfonyl)phenyl]methyl}thio)-1-(4-fluorophenyl)-1H-imidazole], the EC50 in test [1] is 100 to 1000 nM; in test [2] it was under 100 nM.

Take `COc1cc(C(C)(C)c2cnc(SCc3c(F)cc(C(=O)N[C@@H](CCCNC(=N)N)C(=O)O)cc3Cl)n2-c2ccc(F)cc2)ccc1Cl` [N-2-{[3-chloro-4-({[5-{1-[4-chloro-3-(methyloxy)phenyl]-1-methylethyl}-1-(4-fluorophenyl)-1H-imidazol-2-yl]thio}methyl)-5-fluorophenyl]carbonyl}-L-arginine]: the EC50 in test [1] and in test [2] was under 100 nM each time.

As to `COc1cc(C(C)(C)c2cnc(SCc3cc(OCCNC(=N)N)c(Cl)cc3F)n2-c2ccc(F)cc2)ccc1Cl` [1-(2-{[2-chloro-5-({[5-{1-[4-chloro-3-(methyloxy)phenyl]-1-methylethyl}-1-(4-fluorophenyl)-1H-imidazol-2-yl]thio}methyl)-4-fluorophenyl]oxy}ethyl)guanidine], the concentration giving a half-maximal response (EC50) in test [1] is under 100 nM; in test [2], 100 to 1000 nM.

Turning to `COc1ccc(C(C)(C)c2cnc(SCc3c(F)cccc3C(F)(F)F)n2-c2ccc(F)cc2)cc1OC` [5-{1-[3,4-bis(methyloxy)phenyl]-1-methylethyl}-1-(4-fluorophenyl)-2-({[2-fluoro-6-(trifluoromethyl)phenyl]methyl}thio)-1H-imidazole], the half-maximal effective concentration (EC50) in test [1] and in test [2] was under 100 nM throughout.

In the case of `COc1cc(-n2c(C(C)(C)c3ccc(Cl)c(Cl)c3)cnc2SCc2c(F)cc(C(=O)NCCS(=O)(=O)O)cc2F)ccc1F` [2-[({4-[({5-[1-(3,4-dichlorophenyl)-1-methylethyl]-1-[4-fluoro-3-(methyloxy)phenyl]-1H-imidazol-2-yl}thio)methyl]-3,5-difluorophenyl}carbonyl)amino]ethanesulfonic acid], the EC50 in test [1] and in test [2] was under 100 nM throughout.

On to `COc1c(Cl)cc(C(C)(C)c2cnc(SCc3c(F)cccc3Cl)n2-c2ccc(F)cc2)cc1Cl` [2-{[(2-chloro-6-fluorophenyl)methyl]thio}-5-{1-[3,5-dichloro-4-(methyloxy)phenyl]-1-methylethyl}-1-(4-fluorophenyl)-1H-imidazole], for which the EC50 in test [1] and in test [2] was under 100 nM in each case.

As a reminder, the EC50 is the concentration giving half of the maximal effect.
